This experiment has as its system mouse. Nature of the experiment: mouse hot plate test. It is filed as in vivo. The following applies: 15 minutes after administration, hot plate 52° C. On the procedure:
The compounds of this invention are useful as analgesics. […] In this test, a mouse is placed inside an upright acrylic cylinder comprising, as its base, a hot plate surface which is maintained at 52° C. The mouse is given, by subcutaneous injection, a predetermined amount of test compound dissolved or suspended in a suitable carrier, and, 15 minutes after administration of the test compound, the mouse is placed on the hot plate surface. The latencies in seconds until the occurrence of each of two separate phenomena then are recorded. First the latency until the mouse licks its hind paw is measured, and, secondly, the latency until the mouse jumps from the hot plate surface is measured. […] This must occur in a dose range which produces no motor incoordination or incapacitation. The following Table records the results obtained from this test, reflected in terms of increase over saline control. Each data point was determined using ten treated and ten control mice, and each represents the difference in mean response latency between treated and control animals. The mean control latency for the hind paw lick response was 28.4±0.9 seconds determined from eight groups of ten control mice each. The mean control jump latency was 52.4±3.7 seconds for studies run in the a.m. and 75.9±6.0 seconds for studies run in the p.m. as determined from four groups of ten mice each in the a.m. and four groups of ten mice each in the p.m.
For orientation: Hot-plate and tail-flick tests time the reaction to a heat stimulus.

`CSCCC(C)(CO)NC(=O)[C@H](Cc1ccccc1)NC(=O)CNC(=O)[C@@H](C)NC(=O)[C@@H](N)Cc1ccc(O)cc1` (stereo partly drawn) [C, L-Tyrosyl-D-alanyl-glycyl-L-phenylalanyl-D,L-α-methylmethionine carbinol]: the “Latency, Increase in Seconds over Control, escape jump (EJ)” value by setting is: (dose 0.1 mg/kg subcutaneous) 16.4 s; (dose 0.3 mg/kg subcutaneous) 47.7 s; (dose 1 mg/kg subcutaneous) 55.2 s; (dose 3 mg/kg subcutaneous) 74.9 s; (dose 10 mg/kg subcutaneous) 90.7 s; (dose 30 mg/kg subcutaneous) 93.8 s. For the same compound, the “Latency, Increase in Seconds over Control, hind paw lick (HPL)” value was -2.6 s (dose 0.1 mg/kg subcutaneous); 1.7 s (dose 0.3 mg/kg subcutaneous); 8.3 s (dose 1 mg/kg subcutaneous); 11.2 s (dose 3 mg/kg subcutaneous); 18.8 s (dose 10 mg/kg subcutaneous); 10.6 s (dose 30 mg/kg subcutaneous).

For the origin of these results see patent publication US4199499A, “Pharmacologically active peptides” (Eli Lilly and Company, priority 1978, dated 1980).
